Laboratory results reported in patent US20230391729A1, “SUCCINATE SALTS OF N-(3-(4-(3-(DIISOBUTYLAMINO)PROPYL)PIPERAZIN-1-YL)PROPYL)-1H-BENZO[D]IMIDAZOL-2-AMINE, PREPARATION THEREOF AND USE OF THE SAME” (ALZPROTECT, priority 2020, published 2023).

Experiments:
[1] = tested on: tau, phosphorylated on the sites Thr212 and Ser214 (AT100); assay: Tau phosphorylation (AT100) in cortical neurons after Aβ1-42 injury; format: cell-based, rat; details: Aβ1-42 injury 72 h; doses above 1 nM
Description: (§1) Rat cortical neurons cultured with microglia were cultured as described by Callizot et al. in J Neurosci Res. 2013, 91: 706-716 with modifications to include microglial cells. Pregnant female rats (Rats Wistar; Janvier Labs France) of 15 days of gestation were killed, after a deep anesthesia with CO2, by cervical dislocation. Then, fetuses were collected and immediately placed in ice-cold L15 Leibovitz medium with a 2% penicillin (10,000 U/ml) and streptomycin (10 mg/ml) solution (PS) and 1% bovine serum albumin (BSA). Cortexes were treated for 20 min at 37° C. with a trypsin-EDTA solution at a final concentration of 0.05% trypsin and 0.02% EDTA. The dissociation was stopped by addition of Dulbecco's modified Eagle's medium (DMEM) with 4.5 g/liter of glucose, containing DNAse I grade II (final concentration 0.5 mg/ml) and 10% fetal calf serum (FCS). Cells were mechanically dissociated by three forced passages through the tip of a 10-mL pipette. […] Viable cells were counted in a Neubauer cytometer, using the trypan blue exclusion test. […]
(§2) Cortical neurons were intoxicated with A3 solutions (see below) after 11 days of culture. […] This solution was gently agitated for 3 days at 37° C. in the dark and immediately used after being properly diluted in control medium to the concentrations used ([…] of Aβ1-42 preparation containing […] of Aβ oligomers (AβO) measured by WB). […]

microglial cells = assay: Microglia activation (OX-41) after Aβ1-42 injury; format: cell-based, rat; details: Aβ1-42 injury 72 h; at the investigated doses
Description: as §1, §2

Substance: N-(3-(4-(3-(diisobutylamino)propyl)piperazin-1-yl)propyl)-1H-benzo[d]imidazol-2-amine sesqui-succinate salt [sesqui-succinate salt Form 1]
- hyperphosphorylation of Tau (AT100 in MAP-2 neurons) [1]: significantly reduced
- activation of microglial cells (OX41 area) (microglial cells): able to decrease the activation of microglial cells
